Results from ChEMBL document CHEMBL3525924, “Cytochrome P450 3A-mediated microsomal biotransformation of 1α,25-dihydroxyvitamin D3 in mouse and human liver: drug-related induction and inhibition of catabolism” (Drug Metab Dispos, 2012).

Columns and labels:
Assay type in all cases: ADME
[1] = Drug metabolism in prednisone treated CD1 mouse liver microsomes assessed as metabolite formation at 20 uM after 30 mins by LC/MS analysis in presence of NADPH and CYP2C inhibitor sulfaphenazole; conditions: 0.5 h
[2] = Drug metabolism in dexamethasone treated CD1 mouse liver microsomes assessed as metabolite formation at 20 uM after 30 mins by LC/MS analysis in presence of NADPH and CYP2A inhibitor 8-methoxypsoralen; conditions: 0.5 h
[3] = Drug metabolism in dexamethasone treated CD1 mouse liver microsomes assessed as metabolite formation at 20 uM after 30 mins by LC/MS analysis in presence of NADPH and CYP2C inhibitor sulfaphenazole; conditions: 0.5 h
[4] = Drug metabolism in dexamethasone treated CD1 mouse liver microsomes assessed as metabolite formation at 20 uM after 30 mins by LC/MS analysis in presence of NADPH and CYP1A1 inhibitor alpha-naphthoflavone; conditions: 0.5 h
Liver microsome [5] = experiment: Drug metabolism in human liver microsomes assessed as IC50 for ritonavir-mediated inhibition of metabolite formation at 20 uM after 30 mins by LC/MS analysis; conditions: 0.5 h
[6] = Drug metabolism in CD1 mouse liver microsomes assessed as metabolite formation at 20 uM after 30 mins by LC/MS analysis in presence of NADPH and CYP2E inhibitor di-ethyldithiocarbamate; conditions: 0.5 h
[7] = Drug metabolism in prednisone treated CD1 mouse liver microsomes assessed as metabolite formation at 20 uM after 30 mins by LC/MS analysis in presence of NADPH and CYP2B inhibitor orphenadrine; conditions: 0.5 h
Liver microsome [8] = experiment: Drug metabolism in human liver microsomes assessed as IC50 for docetaxel-mediated inhibition of metabolite formation at 20 uM after 30 mins by LC/MS analysis; conditions: 0.5 h
[9] = Drug metabolism in dexamethasone treated CD1 mouse liver microsomes assessed as metabolite formation at 20 uM after 30 mins by LC/MS analysis in presence of NADPH and CYP2E inhibitor di-ethyldithiocarbamate; conditions: 0.5 h
[10] = Drug metabolism in CD1 mouse liver microsomes assessed as metabolite formation at 20 uM after 30 mins by LC/MS analysis in presence of NADPH and CYP2B inhibitor orphenadrine; conditions: 0.5 h
[11] = Drug metabolism in CD1 mouse liver microsomes assessed as metabolite formation at 20 uM after 30 mins by LC/MS analysis in presence of NADPH and CYP1A2 inhibitor furafyline; conditions: 0.5 h
Liver microsome [12] = experiment: Drug metabolism in human liver microsomes assessed as IC50 for tamoxifen-mediated inhibition of metabolite formation at 20 uM after 30 mins by LC/MS analysis; conditions: 0.5 h
Liver microsome [13] = experiment: Drug metabolism in human liver microsomes assessed as IC50 for ketoconazole-mediated inhibition of metabolite formation at 20 uM after 30 mins by LC/MS analysis; conditions: 0.5 h
[14] = Drug metabolism in prednisone treated CD1 mouse liver microsomes assessed as metabolite formation at 20 uM after 30 mins by LC/MS analysis in presence of NADPH and CYP1A1 inhibitor alpha-naphthoflavone; conditions: 0.5 h
[15] = Drug metabolism in prednisone treated CD1 mouse liver microsomes assessed as metabolite formation at 20 uM after 30 mins by LC/MS analysis in presence of NADPH and CYP2D inhibitor quinine; conditions: 0.5 h
[16] = Drug metabolism in prednisone treated CD1 mouse liver microsomes treated with 20 uM of 1alpha,25(OH)2D3 assessed as metabolite formation after 30 mins by LC/MS analysis in presence of NADPH; conditions: 0.5 h
[17] = Drug level in dexamethasone treated CD1 mouse liver microsomes treated with 20 uM of 1alpha,25(OH)2D3 after 30 mins by LC/MS analysis in presence of NADPH relative to vehicle treated mouse; conditions: 0.5 h
[18] = Drug metabolism in prednisone treated CD1 mouse liver microsomes assessed as metabolite formation at 20 uM after 30 mins by LC/MS analysis in presence of NADPH and CYP2E inhibitor di-ethyldithiocarbamate; conditions: 0.5 h
[19] = Drug metabolism in CD1 mouse liver microsomes assessed as metabolite formation at 20 uM after 30 mins by LC/MS analysis in presence of NADPH and CYP2D inhibitor quinine; conditions: 0.5 h
[20] = Drug metabolism in CD1 mouse liver microsomes assessed as metabolite formation at 20 uM after 30 mins by LC/MS analysis in presence of NADPH and CYP1A1 inhibitor alpha-naphthoflavone; conditions: 0.5 h
[21] = Drug metabolism in dexamethasone treated CD1 mouse liver microsomes assessed as metabolite formation at 20 uM after 30 mins by LC/MS analysis in presence of NADPH and CYP1A2 inhibitor furafyline; conditions: 0.5 h
[22] = Drug metabolism in prednisone treated CD1 mouse liver microsomes assessed as metabolite formation at 20 uM after 30 mins by LC/MS analysis in presence of NADPH and CYP2A inhibitor 8-methoxypsoralen; conditions: 0.5 h
[23] = Drug metabolism in CD1 mouse liver microsomes assessed as metabolite formation at 20 uM after 30 mins by LC/MS analysis in presence of NADPH and CYP2A inhibitor 8-methoxypsoralen; conditions: 0.5 h
[24] = Drug metabolism in dexamethasone treated CD1 mouse liver microsomes assessed as metabolite formation at 20 uM after 30 mins by LC/MS analysis in presence of NADPH and CYP2B inhibitor orphenadrine; conditions: 0.5 h
[25] = Drug metabolism in prednisone treated CD1 mouse liver microsomes assessed as metabolite formation at 20 uM after 30 mins by LC/MS analysis in presence of NADPH and CYP1A2 inhibitor furafyline; conditions: 0.5 h
Liver microsome [26] = experiment: Drug metabolism in human liver microsomes assessed as IC50 for clarithromycin-mediated inhibition of metabolite formation at 20 uM after 30 mins by LC/MS analysis; conditions: 0.5 h
[27] = Drug metabolism in CD1 mouse liver microsomes assessed as metabolite formation at 20 uM after 30 mins by LC/MS analysis in presence of NADPH and CYP2C inhibitor sulfaphenazole; conditions: 0.5 h
Liver microsome [28] = experiment: Drug level in human liver microsomes assessed as retention time treated with 20 uM of 1alpha,25(OH)2D3 after 30 mins by LC/MS analysis in presence of NADPH; conditions: 0.5 h
[29] = Drug metabolism in dexamethasone treated CD1 mouse liver microsomes assessed as metabolite formation at 20 uM after 30 mins by LC/MS analysis in presence of NADPH and CYP2D inhibitor quinine; conditions: 0.5 h
Cytochrome P450 3A4 [30] = target: T1, Cytochrome P450 3A4 (Homo sapiens, UniProt P08684); experiment: Drug metabolism assessed as 10 uM ritonavir-mediated inhibition of human CYP3A4-mediated metabolite formation by LC/MS analysis; conditions: recombinant enzyme
T1 sequence (P08684 whole entry): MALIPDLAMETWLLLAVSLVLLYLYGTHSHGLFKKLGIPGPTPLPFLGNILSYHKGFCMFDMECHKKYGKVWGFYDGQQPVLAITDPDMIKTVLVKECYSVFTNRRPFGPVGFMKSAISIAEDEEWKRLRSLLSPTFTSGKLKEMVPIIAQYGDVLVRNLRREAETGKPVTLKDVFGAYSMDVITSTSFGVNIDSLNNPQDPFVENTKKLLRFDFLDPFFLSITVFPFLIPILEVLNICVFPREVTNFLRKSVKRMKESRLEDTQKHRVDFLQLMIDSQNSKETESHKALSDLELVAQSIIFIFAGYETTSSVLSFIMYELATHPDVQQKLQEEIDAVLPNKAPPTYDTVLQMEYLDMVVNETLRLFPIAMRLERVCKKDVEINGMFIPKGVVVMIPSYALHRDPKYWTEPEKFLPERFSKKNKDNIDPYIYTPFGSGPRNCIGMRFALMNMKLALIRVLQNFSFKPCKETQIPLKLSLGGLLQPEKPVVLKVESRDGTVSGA

Cytochrome P450 3A4 [31] = target: T1, Cytochrome P450 3A4; experiment: Drug metabolism assessed as 100 uM troleandromycin-mediated inhibition of human CYP3A4-mediated metabolite formation by LC/MS analysis; conditions: recombinant enzyme
Cytochrome P450 3A4 [32] = target: T1, Cytochrome P450 3A4; experiment: Drug metabolism assessed as 100 uM tamoxifen-mediated inhibition of human CYP3A4-mediated metabolite formation by LC/MS analysis; conditions: recombinant enzyme
Cytochrome P450 3A4 [33] = target: T1, Cytochrome P450 3A4; experiment: Drug metabolism assessed as 1 uM ketoconazole-mediated inhibition of human CYP3A4-mediated metabolite formation by LC/MS analysis; conditions: recombinant enzyme

Row | SMILES | Drug metabolism [1] | Drug metabolism [2] | Drug metabolism [3] | Drug metabolism [4] | IC50 (Liver microsome [5]) [nM] | Drug metabolism [6] | Drug metabolism [7] | IC50 (Liver microsome [8]) [nM] | Drug metabolism [9] | Drug metabolism [10] | Drug metabolism [11] | IC50 (Liver microsome [12]) [nM] | IC50 (Liver microsome [13]) [nM] | Drug metabolism [14] | Drug metabolism [15] | Drug metabolism [16] | Drug metabolism [18] | Drug metabolism [19] | Drug metabolism [20] | Drug metabolism [21] | also measured
1 | C=C1/C(=C\C=C2/CCC[C@]3(C)[C@@H]([C@H](C)CC[C@@H](O)C(C)(C)O)CC[C@@H]23)C[C@@H](O)C[C@@H]1O | metabolite_detected | metabolite_detected | metabolite_detected | metabolite_detected | 28 | metabolite_detected | metabolite_detected | 77 | metabolite_detected | metabolite_detected | metabolite_detected | > 40000 | 42 | metabolite_detected | metabolite_detected | metabolite_detected | metabolite_detected | metabolite_detected | metabolite_detected | metabolite_detected | fold change (FC) [17]: 17; Drug metabolism [22]: metabolite_detected; Drug metabolism [23]: metabolite_detected; Drug metabolism [24]: metabolite_detected; Drug metabolism [25]: metabolite_detected; IC50 (Liver microsome [26]): > 30000 nM; Drug metabolism [27]: metabolite_detected; Retention_time (Liver microsome [28]): 8.8 min; Drug metabolism [29]: metabolite_detected
2 | C=C1/C(=C\C=C2/CCC[C@]3(C)[C@@H]([C@H](C)C[C@H](O)CC(C)(C)O)CC[C@@H]23)C[C@@H](O)C[C@@H]1O | metabolite_detected | metabolite_detected | metabolite_detected | metabolite_detected | 13 | metabolite_detected | metabolite_detected | 38 | metabolite_detected | metabolite_detected | metabolite_detected | > 40000 | 40 | metabolite_detected | metabolite_detected | metabolite_detected | metabolite_detected | metabolite_detected | metabolite_detected | metabolite_detected | fold change (FC) [17]: 43; Drug metabolism [22]: metabolite_detected; Drug metabolism [23]: metabolite_detected; Drug metabolism [24]: metabolite_detected; Drug metabolism [25]: metabolite_detected; IC50 (Liver microsome [26]): > 30000 nM; Drug metabolism [27]: metabolite_detected; Retention_time (Liver microsome [28]): 8.5 min; Drug metabolism [29]: metabolite_detected
3 | C=C1/C(=C\C=C2/CCC[C@]3(C)[C@@H]([C@H](C)C[C@@H](O)CC(C)(C)O)CC[C@@H]23)C[C@@H](O)C[C@@H]1O | metabolite_detected | metabolite_detected | metabolite_detected | metabolite_detected | 16 | metabolite_detected | metabolite_detected | 38 | metabolite_detected | metabolite_detected | metabolite_detected | > 40000 | 32 | metabolite_detected | metabolite_detected | metabolite_detected | metabolite_detected | metabolite_detected | metabolite_detected | metabolite_detected | Drug metabolism [17]: metabolite_detected; Drug metabolism [22]: metabolite_detected; Drug metabolism [23]: metabolite_detected; Drug metabolism [24]: metabolite_detected; Drug metabolism [25]: metabolite_detected; IC50 (Liver microsome [26]): > 30000 nM; Drug metabolism [27]: metabolite_detected; Retention_time (Liver microsome [28]): 9.7 min; Drug metabolism [29]: metabolite_detected
4 | C=C1/C(=C\C=C2/CCC[C@]3(C)[C@@H]([C@H](C)CC[C@H](O)C(C)(C)O)CC[C@@H]23)C[C@@H](O)C[C@@H]1O | metabolite_detected | metabolite_detected | metabolite_detected | metabolite_detected | 8 | metabolite_detected | metabolite_detected | 12 | metabolite_detected | metabolite_detected | metabolite_detected | > 40000 | 565 | metabolite_detected | metabolite_detected | metabolite_detected | metabolite_detected | metabolite_detected | metabolite_detected | metabolite_detected | Drug metabolism [17]: metabolite_detected; Drug metabolism [22]: metabolite_detected; Drug metabolism [23]: metabolite_detected; Drug metabolism [24]: metabolite_detected; Drug metabolism [25]: metabolite_detected; IC50 (Liver microsome [26]): > 30000 nM; Drug metabolism [27]: metabolite_detected; Retention_time (Liver microsome [28]): 9 min; Drug metabolism [29]: metabolite_detected
5 | Cc1nnc2n1-c1ccc(Cl)cc1C(c1ccccc1Cl)=NC2 [TRIAZOLAM] |  |  |  |  |  |  |  |  |  |  |  |  |  |  |  |  |  |  |  |  | Drug metabolism (Cytochrome P450 3A4 [30]): metabolite_not_detected; Drug metabolism (Cytochrome P450 3A4 [31]): metabolite_not_detected; Drug metabolism (Cytochrome P450 3A4 [32]): metabolite_not_detected; Drug metabolism (Cytochrome P450 3A4 [33]): metabolite_not_detected
